Data as given in paper PMC3266433 (Antiviral Research, 2011).
Structures can show the parent of a compound that is named as a salt. Where two headings read alike, the source gives them in different places.

What was measured:
WNV NS2B-NS3pro = WNV NS2B-NS3pro (West Nile virus, UniProt Q9Q6P4); assay: Steady-state kinetics of WNV NS2B-NS3pro inhibition; assay type: biochemical
DEN2V NS2B-NS3pro [1] = molecular target: T1, DEN2V NS2B-NS3pro (Dengue virus type 2, UniProt P29990); assay: Steady-state kinetics of DEN2V NS2B-NS3pro inhibition; assay type: biochemical, dengue 2 virus; details: BOC-GRR-AMC 0 to 1.2 mM
DEN2V NS2B-NS3pro [2] = molecular target: T1, DEN2V NS2B-NS3pro; assay: Single-point DEN2V NS2B-NS3pro inhibition assay to validate hits; assay type: biochemical, dengue 2 virus; details: single-point validation assay
[3] = molecular target: T2, bovine pancreatic trypsin (Bos taurus, UniProt P00760); assay: Single-point trypsin inhibition assay to validate selectivity; assay type: biochemical; details: 100 μM compound; BOC-GRR-AMC 30 μM
T2 sequence (P00760 24-246): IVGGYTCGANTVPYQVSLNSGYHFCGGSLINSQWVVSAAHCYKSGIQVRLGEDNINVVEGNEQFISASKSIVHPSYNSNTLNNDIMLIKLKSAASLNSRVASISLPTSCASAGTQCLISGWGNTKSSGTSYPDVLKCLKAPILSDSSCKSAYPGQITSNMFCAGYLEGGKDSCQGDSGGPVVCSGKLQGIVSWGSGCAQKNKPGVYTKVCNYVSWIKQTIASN

cells = details: ref Yip et al., 2006; cited from earlier work
[4] = read-out: Ki1, DEN2V NS2B-NS3pro
[5] = read-out: Ki2, DEN2V NS2B-NS3pro

T1 sequence (P29990 1398-1437): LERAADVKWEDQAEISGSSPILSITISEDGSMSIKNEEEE
T1 sequence (P29990 1476-1653): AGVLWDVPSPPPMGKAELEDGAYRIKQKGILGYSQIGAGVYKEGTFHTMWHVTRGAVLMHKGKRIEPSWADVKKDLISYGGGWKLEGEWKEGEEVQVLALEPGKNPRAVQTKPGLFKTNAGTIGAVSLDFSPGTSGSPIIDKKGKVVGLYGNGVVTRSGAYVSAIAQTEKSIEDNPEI
Chain of WNV NS2B-NS3pro (Q9Q6P4 1428-1467): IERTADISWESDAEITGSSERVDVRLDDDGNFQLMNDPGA
Chain of WNV NS2B-NS3pro (Q9Q6P4 1506-1683): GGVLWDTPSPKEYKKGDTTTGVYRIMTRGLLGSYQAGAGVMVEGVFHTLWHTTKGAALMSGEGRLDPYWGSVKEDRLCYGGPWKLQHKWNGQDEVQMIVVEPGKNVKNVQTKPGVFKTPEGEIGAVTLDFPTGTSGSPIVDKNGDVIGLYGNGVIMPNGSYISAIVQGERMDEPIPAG

Compound | Mechanism (WNV NS2B-NS3pro; WNV NS2B-NS3pro) | Ki (WNV NS2B-NS3pro; read-out: Ki1, WNV NS2B-NS3pro) [µM] | Ki (WNV NS2B-NS3pro; read-out: Ki2, WNV NS2B-NS3pro) [µM] | Mechanism (DEN2V NS2B-NS3pro [1]; DEN2V NS2B-NS3pro) | Ki (DEN2V NS2B-NS3pro [1]; [4]) [µM] | Ki (DEN2V NS2B-NS3pro [1]; [5]) [µM] | DEN2V protease inhibition (in words) (DEN2V NS2B-NS3pro [2]) | trypsin inhibition [3] | Ki (WNV NS2B-NS3pro; Ki1, WNV NS2B-NS3pro) [µM] | Ki (WNV NS2B-NS3pro; Ki2, WNV NS2B-NS3pro) [µM] | Ki (DEN2V NS2B-NS3pro [1]; Ki2, DEN2V NS2B-NS3pro) [µM] | CC50 (cell viability reduced by 50%) (cells)
CC[C@H](C)[C@H]1O[C@]2(CC[C@@H]1C)C[C@@H]1C[C@@H](C/C=C(\C)[C@@H](O[C@H]3C[C@H](OC)[C@@H](O[C@H]4C[C@H](OC)[C@@H](O)[C@H](C)O4)[C@H](C)O3)[C@@H](C)/C=C/C=C3\CO[C@@H]4[C@H](O)C(C)=C[C@@H](C(=O)O1)[C@]34O)O2 [MS21, Ivermectin] | mixed | 55 ± 18 | 16 ± 4 | mixed | 79 ± 21 | 35 ± 4 | inhibited DEN2V protease | did not inhibit trypsin | – | – | – | –
Cc1cc(C(C)(C)CC(C)(C)C)ccc1OCCOCC[N+](C)(C)Cc1ccccc1.[Cl-] [MS22, Methylbenzethonium chloride] | mixed | 141 ± 20 | 307 ± 80 | mixed | 322 ± 81 | 160 ± 39 | inhibited DEN2V protease | did not inhibit trypsin | – | – | – | –
CO[C@H]1C[C@H](O[C@@H]2/C(C)=C/C[C@@H]3C[C@@H](C[C@]4(CC[C@H](C)[C@@H](C5CCCCC5)O4)O3)OC(=O)[C@@H]3C=C(C)/C(=N/O)[C@H]4OC/C(=C\C=C\[C@@H]2C)[C@]43O)O[C@@H](C)[C@@H]1O [MS24, Selamectin] | mixed | – | – | mixed | – | – | inhibited DEN2V protease | did not inhibit trypsin | 15 ± 9 | 28 ± 6 | 45 ± 8 | –
CCCCC(CC)CNC(=N)NC(=N)NCCCCCCNC(=N)NC(=N)NCC(CC)CCCC (stereo not shown) [MS28, Alexidine hydrochloride] | mixed | – | – | mixed inhibition mechanism | – | – | inhibited DEN2V protease | did not inhibit trypsin | 12 ± 1.2 | 28 ± 5 | 84 ± 16 | low micromolar
